Experimental data from patent US6465457B1 (priority 1991, dated 2002).
Read-outs that look alike come from different tables or passages of the source.

Experiments:
Type in all cases: in vivo
[1] = tested on: Pyricularia oryzae (Rice); details: one or two days before inoculation
[2] = tested on: Plasmopara viticola (Vines); assay: Foliar fungal disease test on plants: Plasmopara viticola (Vines); details: one or two days before inoculation
Description: (§1) The compounds were tested against a variety of foliar fungal diseases of plants. The technique employed was as follows.
(§2) The plants were grown in John Innes Potting Compost (No 1 or 2) in 4 cm diameter minipots. The test compounds were formulated either by bead milling with aqueous DISPERSOL T or as a solution in acetone or acetone/ethanol which was diluted to the required concentration immediately before use. […] The sprays were applied to maximum retention and the root drenches to a final concentration equivalent to approximately 40 ppm a.i. in dry soil. TWEEN 20 was added to give a final concentration of 0.05% when the sprays were applied to cereals.
(§3) For most of the tests the compounds were applied to the soil (roots) or to the foliage (by spraying) one or two days before the plant was inoculated with the disease. An exception was the test on Erysiphe graminis in which the plants were inoculated 24 hours before treatment. Foliar pathogens were applied by spray as zoosporangial suspensions onto the leaves of test plants. After inoculation, the plants were put into an appropriate environment to allow infection to proceed and then incubated until the disease was ready for assessment. The period between inoculation and assessment varied from four to fourteen days according to the disease and environment.
(§4) The disease level present (i.e. leaf area covered by actively sporulating disease) on each of the treated plants was recorded using the following assessment scale:
(§5) Each assessment was then expressed as a percentage of the level of disease present on the untreated control plants. This calculated value is referred to as a POCO (Percentage of Control) value. An example of a typical calculation is as follows:
(§6) Disease level on untreated control=90
(§7) Disese level on treated plant=30 [formula]
(§8) This calculated POCO value is then rounded to the nearest of the values in the 9-point assessment scale shown above. In this particular example, the POCO value would be rounded to 30. If the calculated POCO falls exactly mid-way between two of the points, it is rounded to the lower of the two values.

Septoria nodorum (Wheat) = assay: Foliar fungal disease test on plants: Septoria nodorum (Wheat); details: one or two days before inoculation
Description: as §1, §2, §3, §4, §5, §6, §7, §8

[3] = tested on: Thanatephorus cucumeries (Rice); assay: Foliar fungal disease test on plants: Thanatephorus cucumeries (Rice); details: one or two days before inoculation
Description: as §1, §2, §3, §4, §5, §6, §7, §8

[4] = tested on: Puccinia recondita (Wheat); assay: Foliar fungal disease test on plants: Puccinia recondita (Wheat)
Description: as §1
The plants were grown in John Innes Potting Compost (No 1 or 2) in 4 cm diameter minipots. The test compounds were formulated either by bead milling with aqueous DISPERSOL T or as a solution in acetone or acetone/ethanol which was diluted to the required concentration immediately before use. The formulations (100 ppm active ingredient) were sprayed on to the foliage or applied to the roots of the plants in the soil. The sprays were applied to maximum retention and the root drenches to a final concentration equivalent to approximately 40 ppm a.i. in dry soil. TWEEN 20 was added to give a final concentration of 0.05% when the sprays were applied to cereals.
as §3, with “For most of the tests the compounds were applied to the soil (roots) or to the foliage (by spraying) one or two days before the plant was inoculated with the disease.” left out
as §4, §5, §6, §7, §8

[5] = tested on: Erysiphe graminis tritici (Wheat); assay: Foliar fungal disease test on plants: Erysiphe graminis tritici (Wheat); details: 100 ppm a.i. foliar spray or root drench (approx. 40 ppm in dry soil); plants inoculated 24 hours before treatment
Description: as §1, §2, §3, §4, §5, §6, §7, §8

[6] = tested on: Phytophthora infestans (Tomatoes); details: 100 ppm a.i. foliar spray or root drench (approx. 40 ppm in dry soil), one or two days before inoculation
[7] = tested on: Venturia inaequalis (Apples); assay: Foliar fungal disease test on plants: Venturia inaequalis (Apples); details: 100 ppm a.i. foliar spray or root drench (approx. 40 ppm in dry soil), one or two days before inoculation
Description: as §1, §2, §3, §4, §5, §6, §7, §8

[8] = 100 ppm a.i. foliar spray or root drench (approx. 40 ppm in dry soil)
[9] = 100 ppm a.i. foliar spray or root drench, plants inoculated with Puccinia recondita 48 hours before treatment
[10] = 100 ppm a.i. foliar spray or root drench (approx. 40 ppm in dry soil), one or two days before inoculation

SMILES | POCO (Percentage of Control) disease level, Pyricularia oryzae (Rice) ([1]; 10 ppm foliar spray only) | POCO (Percentage of Control) disease level, Plasmopara viticola (Vines) ([2]; 10 ppm foliar spray only) | POCO (Percentage of Control) disease level, Septoria nodorum (Wheat) (Septoria nodorum (Wheat); 10 ppm foliar spray only) | POCO (Percentage of Control) disease level, Thanatephorus cucumeries (Rice) ([3]; 10 ppm foliar spray only) | POCO (Percentage of Control) disease level, Puccinia recondita (Wheat) ([4]; 10 ppm foliar spray only, one or two days before inoculation) | POCO (Percentage of Control) disease level, Erysiphe graminis tritici (Wheat) [5] | POCO (Percentage of Control) disease level, Phytophthora infestans (Tomatoes) [6] | POCO (Percentage of Control) disease level, Plasmopara viticola (Vines) [2, 8] | POCO (Percentage of Control) disease level, Septoria nodorum (Wheat) (Septoria nodorum (Wheat); [8]) | POCO (Percentage of Control) disease level, Thanatephorus cucumeries (Rice) [3, 8] | POCO (Percentage of Control) disease level, Venturia inaequalis (Apples) [7] | POCO (Percentage of Control) disease level, Puccinia recondita (Wheat) [4, 9] | POCO (Percentage of Control) disease level, Pyricularia oryzae (Rice) [1, 8] | POCO (Percentage of Control) disease level, Puccinia recondita (Wheat) [4, 10]
COC=C(C(=O)OC)c1ccccc1COC(=S)Nc1ccc(Cl)cc1 [11 (6)] | 20 (20 and 24 = 10.1-20% disease present) | 0 (0 = 0% disease present) | 60 (60 = 30.1-60% disease present) | 90 (90 and 94 = 60.1-100% disease present) | 20 (20 and 24 = 10.1-20% disease present) |  |  |  |  |  |  |  |  | 
CCN(C(=O)OCc1ccccc1C(=COC)C(=O)OC)c1cccc([N+](=O)[O-])c1F [106 (3)] |  |  |  |  |  | 30 (30 = 20.1-30% disease present) | 90 (90 and 94 = 60.1-100% disease present) | 0 (0 = 0% disease present) | 60 (60 = 30.1-60% disease present) | 0 (0 = 0% disease present) | 0 (0 = 0% disease present) | 60+ (60 = 30.1-60% disease present) |  | 
COC=C(C(=O)OC)c1ccccc1COC(=S)Nc1ccccc1SC [21 (6)] |  |  |  |  |  | 3 (3 = 1.1-3% disease present) |  | 0 (0 = 0% disease present) | 0 (0 = 0% disease present) | 0 (0 = 0% disease present) |  |  | 0 (0 = 0% disease present) | 0 (0 = 0% disease present)
COC=C(C(=O)OC)c1ccccc1OC(=O)NCc1ccccc1 [4 (17)] |  |  |  |  |  | 10 (10 = 5.1-10% disease present) |  | 0 (0 = 0% disease present) | 60 (60 = 30.1-60% disease present) | 0 (0 = 0% disease present) |  |  | 5 (5 = 3.1-5% disease present) | 1 (1 = 0.1-1% disease present)
COC=C(C(=O)OC)c1ccccc1COC(=S)Nc1ccc([N+](=O)[O-])cc1 [9 (6)] |  |  |  |  |  | 90 (90 and 94 = 60.1-100% disease present) |  | 90 (90 and 94 = 60.1-100% disease present) | 90 (90 and 94 = 60.1-100% disease present) | 90 (90 and 94 = 60.1-100% disease present) |  |  | 20 (20 and 24 = 10.1-20% disease present) | 90 (90 and 94 = 60.1-100% disease present)
COC=C(C(=O)OC)c1ccccc1COC(=O)Nc1ccccc1[N+](=O)[O-] [15 (1)] |  |  |  |  |  |  | 3 (3 = 1.1-3% disease present) | 0 (0 = 0% disease present) | 0 (0 = 0% disease present) |  | 0 (0 = 0% disease present) | 90+ (90 and 94 = 60.1-100% disease present) | 5 (5 = 3.1-5% disease present) | 
COC=C(C(=O)OC)c1ccccc1COC(=O)Nc1cccc(OC)c1 [7 (1)] |  |  |  |  |  | 5 (5 = 3.1-5% disease present) | 90 (90 and 94 = 60.1-100% disease present) | 60 (60 = 30.1-60% disease present) | 90 (90 and 94 = 60.1-100% disease present) | 60 (60 = 30.1-60% disease present) |  |  | 0 (0 = 0% disease present) | 10 (10 = 5.1-10% disease present)
